# Laboratory results: ChEMBL document CHEMBL1201862, “PubChem BioAssay data set” (2004)
# Active and inactive are the calls of the source.
# Legend:
# Cytochrome P450 3A4 = Cytochrome P450 3A4 (Homo sapiens, UniProt P08684);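 note: CYP3A4 tested as one member of a cytochrome P450 panel screen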
# [1] = target: T1, Heat shock factor protein 1 (Mus musculus, UniProt P38532); test: inhibition of MG132-induced HSE-luciferase signal, confirmation, cell-based, NIH3T3, luminescence, dose retest (AID 2382); assay type: functional;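 note: NIH3T3 fibroblasts with HSF1-driven luciferase reporter stressed by proteasome inhibitor MG132; luminescence from HSF1-driven luciferase expression after 8 hours of MG132 stress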
# T1 sequence (P38532 whole entry): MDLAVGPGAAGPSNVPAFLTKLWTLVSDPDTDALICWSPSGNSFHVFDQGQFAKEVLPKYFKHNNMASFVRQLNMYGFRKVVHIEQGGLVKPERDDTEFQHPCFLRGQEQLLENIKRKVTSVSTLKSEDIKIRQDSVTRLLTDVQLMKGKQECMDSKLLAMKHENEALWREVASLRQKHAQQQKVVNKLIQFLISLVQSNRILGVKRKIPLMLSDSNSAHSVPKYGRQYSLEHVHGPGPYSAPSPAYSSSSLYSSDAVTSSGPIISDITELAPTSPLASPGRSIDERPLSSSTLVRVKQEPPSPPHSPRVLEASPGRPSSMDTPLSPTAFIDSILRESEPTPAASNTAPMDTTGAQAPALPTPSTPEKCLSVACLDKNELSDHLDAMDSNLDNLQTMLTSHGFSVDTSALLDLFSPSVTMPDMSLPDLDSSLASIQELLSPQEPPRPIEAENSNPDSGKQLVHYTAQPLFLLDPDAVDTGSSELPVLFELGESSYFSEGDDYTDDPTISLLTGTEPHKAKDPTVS
# Cytochrome P450 2C19 = Cytochrome P450 2C19 (Homo sapiens, UniProt P33261); test: Cytochrome panel assay with activity outcomes. Panel member name: p450-cyp2c19 Compounds with AC50 equal or less than 10 uM are considered active; assay type: functional
# [2] = target: T2, Corticotropin-releasing factor receptor 2/Corticotropin-releasing factor-binding protein (Homo sapiens, UniProt P24387+Q13324); test: activators of CRF receptor 2 with binding protein – uHTS hits, confirmation (AID 602473); assay type: functional; conditions: read-out: EC50_Mean
# T2 sequence (Q13324 whole entry): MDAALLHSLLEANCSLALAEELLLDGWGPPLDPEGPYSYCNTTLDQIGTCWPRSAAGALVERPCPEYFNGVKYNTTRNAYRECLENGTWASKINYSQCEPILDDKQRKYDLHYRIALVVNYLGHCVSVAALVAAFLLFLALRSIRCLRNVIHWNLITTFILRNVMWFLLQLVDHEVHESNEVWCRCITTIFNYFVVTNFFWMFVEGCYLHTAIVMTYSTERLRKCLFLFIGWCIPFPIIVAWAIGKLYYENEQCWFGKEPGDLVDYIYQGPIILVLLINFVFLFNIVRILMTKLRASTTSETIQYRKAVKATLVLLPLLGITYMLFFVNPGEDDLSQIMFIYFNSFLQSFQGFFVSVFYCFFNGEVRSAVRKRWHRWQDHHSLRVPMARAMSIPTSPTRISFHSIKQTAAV
# T2 sequence (P24387 whole entry): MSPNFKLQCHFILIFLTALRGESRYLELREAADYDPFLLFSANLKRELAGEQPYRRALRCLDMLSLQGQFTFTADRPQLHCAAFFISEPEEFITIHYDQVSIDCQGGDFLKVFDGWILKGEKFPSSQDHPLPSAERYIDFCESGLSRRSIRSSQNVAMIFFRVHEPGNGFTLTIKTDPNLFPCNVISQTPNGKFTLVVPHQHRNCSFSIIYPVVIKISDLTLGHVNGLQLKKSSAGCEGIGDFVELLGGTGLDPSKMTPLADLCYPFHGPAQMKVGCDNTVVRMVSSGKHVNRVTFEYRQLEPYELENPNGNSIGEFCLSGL
# [3] = HEp-2 cell cytotoxicity, dose response, cytotoxicity control for RSV inhibitor project, HTS (AID 2410); assay type: functional; conditions: human respiratory syncytial virus
# Cytochrome P450 2C9 = Cytochrome P450 2C9 (Homo sapiens, UniProt P11712)
# Cytochrome P450 1A2 = target: T3, Cytochrome P450 1A2 (Homo sapiens, UniProt P05177);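 note: PubChem cytochrome P450 panel assay, CYP1A2 panel member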
# T3 sequence (P05177 whole entry): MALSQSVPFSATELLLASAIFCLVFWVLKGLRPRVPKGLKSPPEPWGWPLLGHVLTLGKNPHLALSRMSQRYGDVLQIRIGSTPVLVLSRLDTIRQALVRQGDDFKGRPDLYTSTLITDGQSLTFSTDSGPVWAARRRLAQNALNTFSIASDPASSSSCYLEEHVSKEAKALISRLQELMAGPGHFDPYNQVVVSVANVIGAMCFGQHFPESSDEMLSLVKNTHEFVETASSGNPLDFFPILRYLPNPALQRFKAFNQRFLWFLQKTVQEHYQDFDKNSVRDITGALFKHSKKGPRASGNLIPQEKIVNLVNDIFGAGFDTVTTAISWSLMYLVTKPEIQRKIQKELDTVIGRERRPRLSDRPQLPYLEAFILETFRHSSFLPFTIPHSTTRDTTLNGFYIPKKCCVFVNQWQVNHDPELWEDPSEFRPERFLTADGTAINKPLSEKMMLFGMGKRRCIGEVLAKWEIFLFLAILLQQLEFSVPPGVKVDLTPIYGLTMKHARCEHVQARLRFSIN
# [4] = Luminescence Cell-Based Dose Retest to Confirm Inhibitors of Cancer Stem Cells. [Related pubchem assays (depositor defined):AID2717, AID2721]; assay type: functional; conditions: Homo sapiens
# Cytochrome P450 2D6 = Cytochrome P450 2D6 (Homo sapiens, UniProt P10635);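 note: CYP2D6 member of a cytochrome P450 panel assay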
# [5] = inhibitors of intracellular T. cruzi replication, confirmation, NIH3T3 host cells, beta-gal luminescence (AID 2044); assay type: functional, cell-based;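 note: intracellular parasites grown in NIH/3T3 mouse fibroblasts as host cells; luminescent beta-galactosidase reporter signal from transgenic T. cruzi replicating inside host cells; inhibitors lower the luminescence signal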
# [6] = cytotoxicity toward NIH3T3 fibroblasts, dose response, counter-screen, cell-based, ATP luminescence, mouse fibroblasts (AID 2010); assay type: functional;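 note: cells exposed to compound for about 90 hours before reading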
# Streptococcus = test: Group A Streptococcus viability loss, dose response, counter-screen for streptokinase expression inhibitor project, luminescence, BacTiterGlo (AID 1915); assay type: functional, organism-based;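 note: potency for reduction of bacterial viability or growth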
# [7] = tested on: Streptococcus sp. 'group A'; test: growth inhibition of control SK(-) GAS strain, dose response, counter-screen for streptokinase expression inhibitor project, luminescence, kanamycin, BacTiterGlo, confirmation (AID 1900); assay type: functional, organism-based
# Chain of Cytochrome P450 3A4 (P08684 whole entry): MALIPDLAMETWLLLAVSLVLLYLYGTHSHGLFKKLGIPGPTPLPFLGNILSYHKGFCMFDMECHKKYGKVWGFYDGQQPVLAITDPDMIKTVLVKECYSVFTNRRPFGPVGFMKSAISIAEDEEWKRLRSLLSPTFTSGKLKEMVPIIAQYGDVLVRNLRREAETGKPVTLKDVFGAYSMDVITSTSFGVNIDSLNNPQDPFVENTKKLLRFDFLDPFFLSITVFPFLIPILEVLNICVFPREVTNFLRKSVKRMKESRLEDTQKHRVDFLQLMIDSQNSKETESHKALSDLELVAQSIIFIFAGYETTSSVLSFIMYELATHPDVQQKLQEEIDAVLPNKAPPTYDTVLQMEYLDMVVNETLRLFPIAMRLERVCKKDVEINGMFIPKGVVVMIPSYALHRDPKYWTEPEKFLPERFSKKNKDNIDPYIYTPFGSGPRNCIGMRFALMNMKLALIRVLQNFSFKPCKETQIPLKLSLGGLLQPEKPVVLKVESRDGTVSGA
# Chain of Cytochrome P450 2D6 (P10635 whole entry): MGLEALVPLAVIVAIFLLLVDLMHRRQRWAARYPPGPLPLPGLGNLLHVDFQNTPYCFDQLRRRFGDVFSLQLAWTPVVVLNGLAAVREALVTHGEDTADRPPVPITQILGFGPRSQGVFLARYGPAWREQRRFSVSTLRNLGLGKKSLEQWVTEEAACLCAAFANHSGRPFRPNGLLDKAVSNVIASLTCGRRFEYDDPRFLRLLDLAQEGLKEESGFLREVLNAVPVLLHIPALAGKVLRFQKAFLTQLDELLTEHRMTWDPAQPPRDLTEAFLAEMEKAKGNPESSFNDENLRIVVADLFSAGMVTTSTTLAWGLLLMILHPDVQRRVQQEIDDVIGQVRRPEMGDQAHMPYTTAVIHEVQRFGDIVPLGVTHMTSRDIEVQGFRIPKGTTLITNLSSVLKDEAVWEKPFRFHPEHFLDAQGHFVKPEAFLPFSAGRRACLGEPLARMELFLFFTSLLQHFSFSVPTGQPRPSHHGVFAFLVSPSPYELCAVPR
# Chain of Cytochrome P450 2C19 (P33261 whole entry): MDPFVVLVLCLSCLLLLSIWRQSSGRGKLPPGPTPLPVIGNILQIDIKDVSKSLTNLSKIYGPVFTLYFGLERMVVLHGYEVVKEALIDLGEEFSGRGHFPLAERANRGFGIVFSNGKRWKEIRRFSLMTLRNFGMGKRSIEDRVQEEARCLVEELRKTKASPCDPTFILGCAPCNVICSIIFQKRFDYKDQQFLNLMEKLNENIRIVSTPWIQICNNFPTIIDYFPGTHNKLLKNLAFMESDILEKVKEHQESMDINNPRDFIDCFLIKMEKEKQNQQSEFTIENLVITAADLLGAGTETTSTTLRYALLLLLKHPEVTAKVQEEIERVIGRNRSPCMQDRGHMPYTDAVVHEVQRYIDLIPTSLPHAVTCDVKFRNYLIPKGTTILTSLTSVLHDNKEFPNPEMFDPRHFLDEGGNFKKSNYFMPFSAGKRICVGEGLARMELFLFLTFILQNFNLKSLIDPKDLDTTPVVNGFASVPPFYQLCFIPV
# Chain of Cytochrome P450 2C9 (P11712 whole entry): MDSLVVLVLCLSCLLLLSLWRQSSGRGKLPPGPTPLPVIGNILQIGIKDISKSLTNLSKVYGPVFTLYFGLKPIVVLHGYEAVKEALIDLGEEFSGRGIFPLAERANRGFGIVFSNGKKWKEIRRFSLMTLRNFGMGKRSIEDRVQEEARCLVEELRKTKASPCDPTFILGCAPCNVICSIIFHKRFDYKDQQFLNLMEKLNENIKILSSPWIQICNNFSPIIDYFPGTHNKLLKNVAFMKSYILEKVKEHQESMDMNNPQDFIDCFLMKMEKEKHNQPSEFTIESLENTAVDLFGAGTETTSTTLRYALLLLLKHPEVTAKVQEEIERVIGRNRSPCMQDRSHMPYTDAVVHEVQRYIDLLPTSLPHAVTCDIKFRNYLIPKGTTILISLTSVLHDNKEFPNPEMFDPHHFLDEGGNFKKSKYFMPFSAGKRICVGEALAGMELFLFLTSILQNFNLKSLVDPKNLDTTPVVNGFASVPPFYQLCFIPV
structure (smiles),measurement,setting,value
N#Cc1cccc(NC(=O)N2CCCC3(CCN(C(=O)c4csnn4)CC3)C2)c1,AC50,Cytochrome P450 3A4,15.8 µM (inconclusive)
Cc1ccc(N(CC(=O)NC2CCCCC2)C(=O)CNC(=O)c2ccco2)c(C)c1,EC50,[1],> 195 µM (not active)
Cc1noc(/C=C/N(C)C)c1S(=O)(=O)N1CCN(c2ccc(F)cc2)CC1,EC50,[1],> 195 µM (not active)
C/C(=N\O)c1ccc2[nH]ccc2c1,AC50,Cytochrome P450 2C19,11.2 µM (inconclusive)
same,AC50,Cytochrome P450 3A4,22.4 µM (inconclusive)
Cc1ccc(C(=O)NCCNC(=O)c2ccc(F)cc2)cn1,EC50,[2],> 53 µM (inactive)
COc1c(CC=C(C)C)c(O)cc2oc(=O)c3c4ccc(O)cc4oc3c12 [GLYCYROL],CC50,[3],26.5 µM (active)
COc1ccc(NC(=O)N2CCCC2C(=O)Nc2ccccc2)cc1 (stereo not given),AC50,Cytochrome P450 2C9,28.2 µM (inconclusive)
same,AC50,Cytochrome P450 2C19,20 µM (inconclusive)
C[C@H]1C[C@@H]2[C@H]3CCC4=CC(=O)C=C[C@@]4(C)[C@@]3(Cl)[C@@H](O)C[C@]2(C)[C@]1(OC(=O)c1ccco1)C(=O)CCl,AC50,Cytochrome P450 2C9,5.01 µM (inconclusive)
same,AC50,Cytochrome P450 2C19,7.94 µM (inconclusive)
same,AC50,Cytochrome P450 1A2,5.01 µM (inconclusive)
CC1(C(=O)CSc2nc3ccccc3s2)CCC(=O)O1 (stereo not given),AC50,Cytochrome P450 1A2,3.55 µM (inconclusive)
same,AC50,Cytochrome P450 3A4,14.1 µM (inconclusive)
CSCCC(NC(=O)c1ccco1)C(=O)N1CC=C(c2ccccc2)CC1 (stereo not given),EC50,[2],6.78 µM (active)
Cc1nn(-c2ccccc2)c(N2CCCCC2)c1/C=N/O,AC50,Cytochrome P450 2C9,7.08 µM (inconclusive)
same,AC50,Cytochrome P450 3A4,14.1 µM (inconclusive)
same,AC50,[4],3.97 µM (active)
COc1cc(OC)c(C(=O)Nc2ccccc2-c2ccccc2)cc1OC,CC50,[3],18.9 µM (active)
O=C(Nc1cccc(F)c1)N1CC[C@@]2(CCCN(C(=O)c3cccc(F)c3)C2)C1,AC50,Cytochrome P450 1A2,12.6 µM (inconclusive)
same,AC50,Cytochrome P450 3A4,15.8 µM (inconclusive)
CCC(CC)C(=O)NCCN1CCN(C(=O)C(CC)CC)CC1,AC50,Cytochrome P450 2C19,31.6 µM (inconclusive)
Cc1ccc(-c2nc3ccccc3c(=O)n2-c2ncccc2C)cc1,AC50,Cytochrome P450 2C9,17.8 µM (inconclusive)
same,AC50,Cytochrome P450 2C19,28.2 µM (inconclusive)
CCOc1ccc(NC(=O)c2nnn(CC(=O)Nc3ccccc3OC)c2N)cc1,AC50,Cytochrome P450 2C19,3.55 µM (inconclusive)
O=S(=O)(NC1CC1)c1ccc(S(=O)(=O)N2CCC(c3nc(O)c4nnn(Cc5cccc(F)c5)c4n3)CC2)cc1,CC50,[3],24.8 µM (active)
CCNc1ncc2nc(-c3cccs3)c(=O)n(Cc3ccc(F)cc3)c2n1,AC50,Cytochrome P450 2C9,31.6 µM (inconclusive)
same,AC50,Cytochrome P450 2C19,20 µM (inconclusive)
same,AC50,Cytochrome P450 1A2,10 µM (inconclusive)
same,AC50,Cytochrome P450 2D6,31.6 µM (inconclusive)
Cc1ccc(C(C)C)c2c1C(c1ccc3c(c1)OCO3)CC(=O)O2 (stereo not given),EC50,[2],4.51 µM (active)
CC1(C)CC(=O)C2=C(C1)N(Cc1cccnc1)C(=O)C2(NC(=O)c1cccnc1)C(F)(F)F (stereo not given),AC50,Cytochrome P450 2C9,0.0794 µM (inconclusive)
same,AC50,Cytochrome P450 2C19,15.8 µM (inconclusive)
same,AC50,Cytochrome P450 1A2,28.2 µM (inconclusive)
COc1ccc2c(c1)OC[C@H]1[C@H]2N2C(=O)CN(Cc3ccc(Cl)cc3)C(=O)[C@@]2(C)[C@H]1c1ccccc1,CC50,[3],14.7 µM (active)
N#Cc1nc(-c2ccc(OCc3ccccc3)cc2)oc1NCCN1CCOCC1,AC50,Cytochrome P450 3A4,3.98 µM (inconclusive)
Cn1c(=O)c(CCc2ccccc2)nc2cnc(N3CCNCC3)nc21,AC50,Cytochrome P450 2C9,25.1 µM (inconclusive)
same,AC50,Cytochrome P450 3A4,0.0251 µM (inconclusive)
CCOC(=O)C1=C(N)Oc2cc(O)ccc2C1c1ccc([N+](=O)[O-])cc1 (stereo not given),EC50,[5],0.659 µM (active)
same,EC50,[6],> 60 µM (not active)
same,CC50,[3],16.9 µM (active)
CCNc1ncc2ncc(=O)n(CCc3ccccc3)c2n1,AC50,Cytochrome P450 2C9,15.8 µM (inconclusive)
same,AC50,Cytochrome P450 2D6,25.1 µM (inconclusive)
same,AC50,Cytochrome P450 3A4,15.8 µM (inconclusive)
COCCn1c(=O)c(-c2ccccc2)nc2cnc(Oc3ccccc3)nc21,AC50,Cytochrome P450 3A4,31.6 µM (inconclusive)
COc1ccc(NC(=O)N2CC[C@@]3(CCCN(C(=O)Oc4ccccc4)C3)C2)cc1,AC50,Cytochrome P450 2C9,25.1 µM (inconclusive)
same,AC50,Cytochrome P450 2C19,15.8 µM (inconclusive)
same,AC50,Cytochrome P450 3A4,39.8 µM (inconclusive)
Cc1nn(C)c(Cl)c1CN1CCCC(CO)(Cc2cccc(Cl)c2)C1 (stereo not given),CC50,[3],43.6 µM (active)
Cc1cccc(N2CCN(C(=O)Cc3ccc(-n4c(=O)[nH]c5ccsc5c4=O)cc3)CC2)c1C,CC50,[3],30.2 µM (active)
COC(=O)C1C(O)=C(/C=N/Cc2ccccc2)C(=O)CC1(C)C (stereo not given),AC50,Cytochrome P450 2C9,14.1 µM (inconclusive)
same,AC50,Cytochrome P450 2C19,39.8 µM (inconclusive)
S=C(c1ccc(-c2ccc(Br)cc2)o1)N1CCCCC1,CC50,[3],29.3 µM (active)
CC1=CC(=C2C(=O)c3ccccc3C2=O)C=C(C)O1,AC50,Cytochrome P450 3A4,14.1 µM (inconclusive)
CCOc1ccc(S(=O)(=O)N2CCN(C(=O)c3cc(-c4ccccc4)nn3-c3ccccc3)CC2)cc1,CC50,[3],48 µM (active)
CC(C)=CCC12Oc3cc(O)ccc3C1(O)Oc1cc3c(c(O)c1C2=O)C=CC(C)(C)O3 (stereo not given),EC50,Streptococcus,3.92 µM (active)
same,EC50,[7],3.32 µM (active)
Cc1cc(C(=O)C(=O)NC(C)C)c(C)n1-c1ccc([N+](=O)[O-])cc1,AC50,Cytochrome P450 2C19,0.0708 µM (inconclusive)
CC(=O)OC[C@@H]1O[C@H](CCO/N=C(\C)CCN2CCc3nc(-c4ccccc4)c(-c4ccccc4)cc3C2)C=C[C@@H]1OC(C)=O,AC50,Cytochrome P450 2C9,3.16 µM (inconclusive)
same,AC50,Cytochrome P450 3A4,3.98 µM (inconclusive)
CSc1cccc(NC(=O)Cn2cccc2)c1,AC50,Cytochrome P450 2D6,14.1 µM (inconclusive)
same,AC50,Cytochrome P450 3A4,22.4 µM (inconclusive)
COC(=O)C(NC(=O)c1ccccc1)=C1C=C(C)OC(C)=C1,AC50,Cytochrome P450 1A2,14.1 µM (inconclusive)
same,AC50,Cytochrome P450 3A4,22.4 µM (inconclusive)
COc1ccc(-c2csc(-c3cccnc3)n2)cc1C,CC50,[3],38.8 µM (active)
